Read-outs that look alike come from different tables or passages of the source.
Assays:
[1] = target: T1, high affinity rolipram binding sites (HARBS) of the PDE4 (PDE4H); assay: Assay II: replacement of [3H]-rolipram bound on particulate HARBS of whole brain; parameters: species or system guinea pig; conditions: guinea pig whole brain particulates, 2 nM [3H]-rolipram, mean±S.E.M., read-out: PDE4H (EC50) for replacing high-affinity [3H]-rolipram binding
T1 construct: other: guinea pig whole brain particulates; 2 nM [3H]-r; guinea pig whole brain particul
Method: (§1) The binding experiments are carried on basis of the methods of Schneider et al and Zhao et al with a small modification. Under a protocol approved by the Animal Care and Use Committee of Taipei Medical University, five male guinea pigs (Hartley), weighing 500-600 g, are anesthetized. The whole brains taken therefrom are homogenized with in 10 volumes of cold medium (pH 6.5) containing 20 mM Bis-tris, 2 mM benzamidine, 2 mM EDTA, 50 mM sodium chloride, 0.1 mM phenylmethanesulfonyl fluoride (PMSF), and 1 mM dithiothreitol. At 4[…], the homogenate is centrifuged at 170 g for 15 min for removing blood vessels and connective tissues, and the supernatant thereof is then re-centrifuged at 40,000 g for 30 min for separating the particulates from the cytosol of cells.
(§2) The final concentration of [^3H]-rolipram is 2 nM. […] After incubation, the reaction is stopped by transferring the reaction vessel to a bath of crashed ice. Then the reaction mixture is filtered through a punched glass fiber filter (Whatman GF/B) placed in a mini funnel, which is adopted to a 1.5 ml of Eppendorff's tube for collecting the filtrate in the mini centrifuge at 1000 rpm (100 g) for 10 seconds. By the same way (centrifugation), it is further washed with 0.3 ml reaction buffer each for three times. The Whatman GF/B filter is mixed with 2 ml of cocktail and counted by the β-scintillation counter (Backman, Fullerton, Calif., USA) for counting the radioactivity thereof.

[2] = system: high affinity rolipram binding sites (HARBS) of the PDE4 (PDE4H); assay: as above; parameters: species or system guinea pig; conditions: ratio of HARBS EC50 to PDE4 IC50
Method: as §1, §2

PDE4 [3] = assay: Assay I: inhibition of cyclic nucleotide PDE activity (cAMP hydrolysis by PDE4); assay type: biochemical; conditions: guinea pig PDE4; 1 μM cAMP substrate; mean±S.E.M.; read-out: PDE4L (IC50) on PDE4 activity
Method: Under a protocol approved by the Animal Care and Use Committee of Taipei Medical University, five male guinea pigs (Hartley), weighing 500-600 g, are sacrificed. The lungs (15 g) or hearts (4 g) taken therefrom are chopped into small pieces and homogenized with a glass/teflon homogenizer (Glas-Col, Terre Haute, Ind., USA) in 10 volumes of cold medium (pH 6.5) containing 20 mM Bis-tris, 2 mM benzamidine, 2 mM EDTA, 50 mM sodium chloride, 0.1 mM phenylmethanesulfonyl fluoride (PMSF), and 1 mM dithiothreitol. At 4 , the homogenate is centrifuged at 170 g for 15 min, and the supernatant thereof is then re-centrifuged at 40,000 g for 30 min. […] The column is washed with two bed volumes of homogenate buffer to remove unbound material, where the resin beads therein will bind with proteins, such as PDE proteins. Proteins bound to the Q-Sepharose beads are eluted with various concentrations (0.23, 0.34, 0.44, 0.69, and 1.00 M) of NaCl dissolved in homogenate buffer (for each concentration, 40-50 mL elution buffer are applied) at a flow rate of 30 ml/h. Fractions (3 ml each) are collected, and ethylene glycol (EG) is added thereto until a final concentration of 30% (v/v). And then the samples are frozen at […].
The activities of PDE4 in the homogenate are measured with a two-step procedure according to the method of Thompson and Appleman, using cAMP with [^3H]-cAMP or cGMP with [^3H]-cGMP as substrates. The PDE enzyme prepared (25 μl) with 10 μl inhibitor or the solvents therefor is incubated for 30 min at 37 °C in a total assay buffer, where the final volume of the assay is amounted to 100 μl. In accordance with the features of the PDE isozymes, the assay buffer contains 50 mM Tris/HCl (pH 7.4), 3 mM MgCl2, 1 mM dithiothreitol, and 0.05% BSA, and optionally contains 1 μM cAMP with 0.2 μCi [^3H]-cAMP as a substrate alone or in the presence of 0.1 unit calmodulin with 10 μM CaCl2, or 5 μM cGMP, and 1 μM cGMP with 0.2 μCi [^3,H]-cGMP as another substrate alone or in the presence of 0.1 unit calmodulin with 10 μM CaCl2.
The PDE enzyme and the inhibitors (or their solvent) therefor are mixed and incubated on ice for 30 min previously, and then mixed with the assay buffer. The assay is initiated by transferring the mixture to a water bath at 37 °C. Following the other 30 min incubation, the reaction is stopped by transferring the reaction vessel to a bath of boiling water for 3 min. After cooling on ice, 20 μl of the 1 mg/ml of Crotalus atrox venom is added to the reaction mixture, and the mixture is incubated at 37 °C for 10 min. The uncatalyzed substrates, such as cAMP, [^3H]-cAMP, cGMP, or [^3H]-cGMP are removed by the addition of 500 μl of a 1-in-1 Tris-HCl (40 mM) buffer suspension of Dowex resin (1×8-200) with incubation on ice for 30 min, since the bindings of the cyclic nucleotides and the resin. Each tube is then centrifuged for 2 min at 6000 rpm (3700 g), and 100 μl of the supernatant is removed and counted by a β-counter for calculating the enzyme (PDEs) activity.
The dissociation constant of inhibitor binding (Ki) value is determined from the equation of apparent Km as a function of the inhibitor concentration (insert in A and B, respectively). The slope of the equation is equal to the value of […] (where KM is Michaelis constant). The amounts of the total proteins are calculated based on the analytical method reported by Bradford. In FIGS. 1A to 1D, all enzyme activities are shown as nmole of substrate per mg of proteins per minute (nmole/mg/min) hydrolyzed.

PDE4H = conditions: cited from earlier work; for PDE4H/PDE4L ratio: literature values [23-26]
PDE4 [4] = conditions: cited from earlier work

CC(=O)Oc1cc(OC(C)=O)c2c(=O)c(OC(C)=O)c(-c3ccc(OC(C)=O)c(OC(C)=O)c3)oc2c1 [Quercetin-3,5,7,3′,4′-O-pentaacetate]
EC50 [1]: 82.8 ± 22.3 µM | PDE4H/PDE4L ratio (EC50/IC50) [2]: 4.48 | IC50 (PDE4 [3]): 18.5 ± 4.6 µM

O=C(Nc1c(Cl)cncc1Cl)c1ccc(OC(F)F)c(OCC2CC2)c1 [roflumilast]
PDE4H/PDE4L ratio (PDE4H): 3

COc1c(-c2ccc(OC(C)=O)c(OC(C)=O)c2)oc2cc(OC(C)=O)cc(OC(C)=O)c2c1=O [Quercetin-3-O-methyl-5,7,3′,4′-O-tetraacetate]
EC50 [1]: 3.9 ± 1.4 µM | PDE4H/PDE4L ratio (EC50/IC50) [2]: 1 | IC50 (PDE4 [3]): 3.9 ± 0.6 µM

COc1ccc([C@]2(C#N)CC[C@@H](C(=O)O)CC2)cc1OC1CCCC1 [cilomilast]
PDE4H/PDE4L ratio (PDE4H): about 1

COc1ccc(C2CNC(=O)C2)cc1OC1CCCC1 (stereo not drawn) [Rolipram, reference compound]
IC50 (PDE4 [4]; literature [23], read-out: IC50 for binding PDE4L): […] | EC50 ([1]; reference drugs): 0.0052 ± 0.0019 µM | PDE4H/PDE4L ratio (EC50/IC50) [2]: […] | EC50 (PDE4H; literature [23], read-out: EC50 for binding PDE4H): ~0.002 µM | PDE4H/PDE4L ratio (PDE4H): […] | IC50 (PDE4 [3]): […]

COc1cc(O)c2c(=O)c(-c3ccc(O)cc3)coc2c1 [Prunetin]
EC50 [1]: > 300 µM | PDE4H/PDE4L ratio (EC50/IC50) [2]: >4.8 | IC50 (PDE4 [3]): 61.9 ± 17.3 µM

O=c1c(O)c(-c2ccc(O)c(O)c2)oc2cc(O)cc(O)c12 [Quercetin]
EC50 [1]: > 300 µM | PDE4H/PDE4L ratio (EC50/IC50) [2]: >30 | IC50 (PDE4 [3]): 9.9 ± 2.5 µM

O=c1c(-c2ccc(O)cc2)coc2cc(O)cc(O)c12 [Genistein]
IC50 (PDE4 [4]; reported by Nichols and Morimoto [18], read-out: IC50 for PDE4 inhibition): 5 µM | EC50 [1]: 47.8 ± 15.9 µM | IC50 (PDE4 [3]): 9.5 ± 1.9 µM

COc1c(-c2ccc(O)c(O)c2)oc2cc(O)cc(O)c2c1=O [Qercetin-3-O-methylether (3-MQ), Qercetin-3-O-methylether]
EC50 [1]: 17.4 ± 4 µM | PDE4H/PDE4L ratio (EC50/IC50) [2]: 0.61 | IC50 (PDE4 [3]): 28.5 ± 5.8 µM

COc1cc(O)c2c(c1)OC(c1ccc(OC)c(OC)c1)CC2=O (stereo not drawn) [Hesperetin-7,3′-O-dimethylether (HDME), Hesperetin-7,3′-O-dimethylether]
EC50 [1]: 107 ± 39.5 µM | PDE4H/PDE4L ratio (EC50/IC50) [2]: 35.5 | IC50 (PDE4 [3]): 3 ± 0.9 µM

CCCCOc1cc(CC2CNC(=O)N2)ccc1OC (stereo not drawn) [Ro 20-1724, reference compound]
EC50 ([1]; reference drugs): 0.087 ± 0.029 µM | IC50 (PDE4 [3]): 8.7 ± 1.9 µM

COc1cc(OC)c2c(c1)OC(c1ccc(OC)c(OC)c1)CC2=O (stereo not drawn) [Hesperetin-5,7,3′-O-trimethylether]
EC50 [1]: 171 ± 32.9 µM | PDE4H/PDE4L ratio (EC50/IC50) [2]: 18 | IC50 (PDE4 [3]): 9.4 ± 2.9 µM

O=C(Nc1c(Cl)cncc1Cl)C(=O)c1cn(Cc2ccc(F)cc2)c2ccc(O)cc12 [AWD-12-281, N-(3,5-dichloro-pyrid-4-yl)-[1-(4-fluorobenzyl)-5-hydroxy-indole-3-yl]-glyo xylic acid amide]
PDE4H/PDE4L ratio (PDE4H): about 11

COc1cc(O)c2c(=O)c(OC)c(-c3ccc(OC)c(OC)c3)oc2c1 [Quercetin-3,7,3′,4′-O-tetramethylether]
EC50 [1]: > 300 µM | IC50 (PDE4 [3]): > 100 µM

O=c1cc(-c2ccc(O)c(O)c2)oc2cc(O[C@@H]3O[C@H](CO)[C@@H](O)[C@H](O)[C@H]3O)cc(O)c12 [Luteolin-7-glucoside]
EC50 [1]: > 300 µM | PDE4H/PDE4L ratio (EC50/IC50) [2]: >7

COc1ccc(-c2coc3cc(O)cc(O)c3c2=O)cc1 [Biochanin A]
EC50 [1]: > 300 µM | PDE4H/PDE4L ratio (EC50/IC50) [2]: >35 | IC50 (PDE4 [3]): 8.5 ± 0.1 µM

COc1cc(O)c2c(=O)c(OC)c(-c3ccc(OC)c(O)c3)oc2c1 [Quercetin-3,7,4′-O-trimethylether]
EC50 [1]: > 300 µM | PDE4H/PDE4L ratio (EC50/IC50) [2]: >19 | IC50 (PDE4 [3]): 15.8 ± 4.4 µM

COc1ccc(C2CC(=O)c3c(O)cc(O)cc3O2)cc1O (stereo not drawn) [Hesperetin]
EC50 [1]: > 300 µM | IC50 (PDE4 [3]): 28.2 ± 1.1 µM

COc1ccc(C2CC(=O)c3c(OC(C)=O)cc(OC(C)=O)cc3O2)cc1OC(C)=O (stereo not drawn) [Hesperetin-5,7,3′-O-triacetate (HTA), Hesperetin-5,7,3′-O-triacetate]
EC50 [1]: > 300 µM | PDE4H/PDE4L ratio (EC50/IC50) [2]: >21 | IC50 (PDE4 [3]): 14.4 ± 1.8 µM

COc1ccc(-c2cc(=O)c3c(O)cc(O)cc3o2)cc1O [Diosmetin]
IC50 (PDE4 [3]): 20.2 ± 2.4 µM

COc1cc(OC)c2c(=O)c(OC)c(-c3ccc(OC)c(OC)c3)oc2c1 [Quercetin-3,5,7,3′,4′-O-petamethylether]
EC50 [1]: 56 ± 22.7 µM | PDE4H/PDE4L ratio (EC50/IC50) [2]: 11 | IC50 (PDE4 [3]): 5.1 ± 1.4 µM

O=c1c(O)c(-c2cc(O)c(O)c(O)c2)oc2cc(O)cc(O)c12 [Myricetin]
EC50 [1]: > 300 µM | PDE4H/PDE4L ratio (EC50/IC50) [2]: >7.5 | IC50 (PDE4 [3]): 39.8 ± 2.1 µM

— patent US20090036518A1, “PHARMACEUTICAL COMPOSITION CONTAINING FLAVONOIDS” (TAIPEI MEDICAL UNIVERSITY, priority 2005, published 2009)
